Assay [1] has as its system K562 cells. As to the kind of experiment: Apoptotic effect by flow cytometry with Annexin V-FITC/7-AAD kit. The format is cell-based. An excerpt:
(§1) In order to determine anti-carcinogenic effect of the inventive compound acute promyelocytic leukaemia (HL-60) and chronic myelogenous leukaemia (K-562) cells were used to prepare cancer cell cultures under suitable conditions. Both leukemic cell lines were subjected to the following methods: • Determination of cytotoxicity / MTT test; • Determination of apoptotic effect using flow cytometry device with Annexin V-FITC/7-AAD kit; • Determination of apoptotic effect using flow cytometry device with caspase-3/7 activation; • Determination of mitochondrial membrane integrity of cells using JC-1 dyeing method; • Determination of apoptotic DNA using DNA fragmentation method with agarose gel; • Determination of NF-kB and c-myc mRNA expression levels using real time PCR (polymerase chain reaction) method; • Gene panel study using RT-PCR method.

Assay [2] deals with NF-kB in HCT116 colon cancer cells. The conditions noted are these: cited from earlier work.
The test system of assay [3] is NF-kB and c-myc mRNA expression in K562 cells. As to the kind of experiment: NF-kB and c-myc mRNA expression levels by real time PCR. It is filed as cell-based. The conditions noted are these: RT-PCR.
Text: as §1

The subject of assay [4] is NF-kB and c-myc mRNA expression in HL-60 cells. The description is as above. The note with it: RT-PCR. The format is cell-based.
Text: as §1

Assay [5] relates to NF-kB in HT-29 colon cancer cells. The conditions noted are these: cited from earlier work.
Assay [6] relates to NF-kB in Caco2 cells. The note with it: cited from earlier work.
The subject of assay [7] is NF-kB levels in MM.1S cells. The conditions noted are these: 12 nmol/mL, 12th and 24th hours of incubation, ELISA; cited from earlier work.
Assay [8] deals with K562 cells. As to the kind of experiment: Apoptotic effect by flow cytometry with caspase-3/7 activation. It is filed as cell-based. The note with it: 12.5 µM, 24 hours of incubation.
Text: as §1

Assay [9] relates to HL-60 cell line. As to the kind of experiment: Apoptotic effect by flow cytometry with Annexin V-FITC/7-AAD kit. It is filed as cell-based.
Text: as §1
For orientation: Flow cytometry measures light scatter and fluorescence of single cells or particles in a stream.

The test system of assay [10] is NFkB-1, p53, PIK3CA, BCL-3, ICAM1, KRAS and BCR genes in K562 cells. As to the kind of experiment: Gene panel study by RT-PCR. The format is cell-based. The conditions noted are these: in comparison to control and Bortezomib groups.
Text: as §1
(§2) The genes used in gene panel study with RT-PCR method include; NFKB-1, TNF, RELA, NMI, TP53, IL-6, TP53, PIK3CA, NFKB-2, BCL-3, NFKBIA, RELB, ICAM1, IL-8, KRAS, BCR, GAPDH.

For assay [11], the system named is NFkB-1, p53, PIK3CA, BCL-3, ICAM1, KRAS and BCR genes in HL-60 cells. Description: Gene panel study by RT-PCR. The format is cell-based. The note with it: in comparison to control and Bortezomib groups, decrease more effective than in K562 cells.
Text: as §1, §2

The subject of assay [12] is K562 cells. As to the kind of experiment: Mitochondrial membrane integrity, JC-1 dyeing method. It is filed as cell-based. The note with it: 12.5 µM.
Text: as §1

In assay [13] the test system is HL-60 cells. The assay is described as above. It is filed as cell-based. The conditions noted are these: 12.5 µM (increase starting from 1.5 µM).
Text: as §1

Assay [14] has as its system K562 cells. Description: Determination of cytotoxicity / MTT test. The format is cell-based.
Text: as §1
Background: Tetrazolium dyes change colour on reduction, which living cells bring about.

The subject of assay [15] is HL-60 cells. As to the kind of experiment: Determination of cytotoxicity / MTT test. The format is cell-based.
Text: as §1

As usually defined, the IC50 is the concentration that inhibits the measured activity by half. High values mean a need for much substance, low ones inhibition by little substance.

On to `CC(C)C[C@H](NC(=O)[C@H](Cc1ccccc1)NC(=O)c1cnccn1)B(O)O` [Bortezomib, reference compound], for which the “early apoptotic cell ratio” value in assay [1] (K562 cells, 3.12 µM, 24th hour) was 18.1%. Also, the NF-kB inhibition entry is given as “NF-kB inhibition was observed” in assay [2], “NF-kB inhibition was observed” in [5] and “not observed” in assay [6]. Besides, the “expression of NF-kB gene” value in assay [3] and in assay [4] was “decreases expression” throughout.

For `CC(C)C[C@H](NC(=O)CNC(=O)c1cc(Cl)ccc1Cl)B(O)O` [MLN2238], the NF-kB levels entry in assay [7] was “significant decreases”.

With “(4-(2-amino-2-(10,11-dioxo-10,11-dihydro-5H-imidaso[1,5,4,3-lmn][1,10]phenanthrolin-5-il]ethyl]phenyl]boronic acid [inventive compound]”, in assay [8], the “increase in the ratio of caspase 3/7 positive cells, K562 cells in comparison to HL-60 cells” value came to 2 times. In assay [9] (Annexin-V/7-AAD), the early apoptotic effect entry is listed as “has not displayed early apoptotic effect”. The necrotic cell rates result in assay [9] (concentrations of 3.12 µM and more, compared to control) is reported as “increase compared to control”. The apoptotic cell ratio in assay [1] (K562 cells, 1.5 µM) was determined as 13.7%. The “early and late apoptotic cell rate” value in assay [1] (K562 cells, 12.5 µM) is 38.2%. The apoptotic effect entry in [1] (K562 cells, 1.5, 3.12, 6.25 and 12.5 µM, 24th hour) is given as “increased the apoptotic effect”. Moreover, the “early-late apoptotic and necrotic cell rates” value in assay [1] (K562 cells, concentrations of 6.5 and 12.5 µM, compared to control) is listed as “increase compared to control”. The “expression of NF-kB gene” value in assay [3] and in assay [4] was “decreases expression” each time. The c-myc expression result in assay [3] (versus control group) is recorded as “higher than control group values”; in [4], “decreased”. The “expression of NFkB-1, p53, PIK3CA, BCL-3, ICAM1, KRAS and BCR genes” value in assay [10] and in assay [11] was “decreases expression” in each case. Also, the results for the “ratio of JC-1 positive cells” value in assay [12] and in assay [13] were 14.7% and 37.1%, respectively. The IC50 in assay [14] (24th hour) is 2620 nM; in assay [14] (48th hour), 3410 nM; in assay [15] (24th hour), 2160 nM; in [15] (48th hour), 2850 nM.

(Values after patent publication EP3018135A1, “A COMPOUND WITH ANTI-CARCINOGENIC EFFECT AND A METHOD FOR PRODUCTION OF THIS COMPOUND” (Ulusal Bor Arastirma Enstitusu, priority 2014, dated 2016).)
